Test results taken from ChEMBL document CHEMBL2203256, “Design and evaluation of azaindole-substituted N-hydroxypyridones as glyoxalase I inhibitors” (Bioorg Med Chem Lett, 2012).

Key:
Lactoylglutathione lyase = Lactoylglutathione lyase (Homo sapiens, UniProt Q04760); experiment: Inhibition of human recombinant GLO1 expressed in Escherichia coli BL21 assessed as decrease in reduced glutathione level after 1 hr by Ellman's method
Liver microsomes [1] = experiment: Clearance in human liver microsomes assessed per mg of protein at 1 uM after 30 mins in absence of NADPH; type: ADME, Microsome; conditions: 0.5 h
Liver [2] = experiment: Clearance in mouse liver microsomes assessed per mg of protein at 1 uM after 30 mins in absence of NADPH; type: ADME, Microsome; conditions: 0.5 h
Liver microsomes [3] = experiment: Clearance in human liver microsomes assessed per mg of protein at 1 uM after 30 mins in presence of NADPH; type: ADME, Microsome; conditions: 0.5 h
[4] = Half life in human serum at […]; type: ADME, cell-free
Liver [5] = experiment: Clearance in mouse liver microsomes assessed per mg of protein at 1 uM after 30 mins in presence of NADPH; type: ADME, Microsome; conditions: 0.5 h
[6] = Half life in mouse serum at […]; type: ADME, cell-free

Lactoylglutathione lyase, sequence (Q04760 whole entry): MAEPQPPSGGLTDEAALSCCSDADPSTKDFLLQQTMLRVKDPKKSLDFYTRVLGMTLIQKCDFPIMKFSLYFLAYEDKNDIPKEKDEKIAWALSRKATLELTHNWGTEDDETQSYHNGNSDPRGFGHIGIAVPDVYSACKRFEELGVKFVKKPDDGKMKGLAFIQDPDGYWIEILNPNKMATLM

| Structure (SMILES) | IC50 (Lactoylglutathione lyase) [nM] | further results |
| --- | --- | --- |
| O=c1cc(-c2ccc(C(F)(F)F)cc2)cc(-c2ccccc2)n1O | 8130 |  |
| O=c1cc(-c2ccsc2)cc(-c2ccccc2)n1O | 1520 |  |
| O=c1cc(-c2ccc(-c3ccccc3)cc2)cc(-c2ccccc2)n1O | 8400 |  |
| NC(=O)c1cccc(Cn2ccc3cc(-c4cc(-c5ccccc5)cc(=O)n4O)ccc32)c1 | 480 |  |
| CCCCCn1ccc2cc(-c3cc(-c4ccccc4)cc(=O)n3O)cnc21 | 510 |  |
| O=c1cc(-c2ccccc2)cc(-c2cnc3[nH]ccc3c2)n1O | 280 |  |
| CCCCc1cc(-c2ccccc2)n(O)c(=O)c1 | > 10000 |  |
| CCC#Cc1cc(-c2ccccc2)n(O)c(=O)c1 | > 10000 |  |
| O=c1cc(-c2ccccc2)cc(-c2ccccc2)n1O | 1190 | CLint (Liver microsomes [1]): 6.6 µL/min/mg; CLint (Liver [2]): 6.8 µL/min/mg; CLint (Liver microsomes [3]): 16 µL/min/mg; half-life [4]: 48.3 h; CLint (Liver [5]): 28 µL/min/mg; half-life [6]: 7.33 h |
| COCCn1ccc2cc(-c3cc(-c4ccccc4)cc(=O)n3O)cnc21 | 14 |  |
| O=c1cc(-c2ccccc2)cc(-c2ccc3[nH]ccc3c2)n1O | 250 |  |
| CCCCn1ccc2cc(-c3cc(-c4ccccc4)cc(=O)n3O)cnc21 | 300 |  |
| O=c1cc(-c2cccnc2)cc(-c2ccccc2)n1O | 8280 |  |
| COCCCn1ccc2cc(-c3cc(-c4ccccc4)cc(=O)n3O)ccc21 | 300 |  |
| NC(=O)c1cccc(Cn2ccc3cc(-c4cc(-c5ccccc5)cc(=O)n4O)cnc32)c1 | 40 |  |
| COCCn1ccc2cc(-c3cc(-c4ccccc4)cc(=O)n3O)ccc21 | 260 |  |
